Entries after “also recorded” stand apart in the source; their conditions may differ.
Assays:
human lymphocytes [1] = assay: Human mitogenic (ConA) stimulation, 3H-thymidine incorporation; type: cell-based; settings: for effect on activation / proliferative response: ConA 5 μg/ml, harvested 72 hours, FIGS. 7A, 8A, 9A; for effect on stimulation of ConA-stimulated human PBLs: reagents at 400 μM, time course, FIG. 4
Description: Blood from healthy volunteers was drawn using venipuncture, using Vacutainer collection sets and heparinized collection vials. The blood was diluted 1:1 using HBSS to a total volume of 30 ml in 50 ml conical tubes (Fisher Scientific, Co., Pittsburgh, Pa.). […] Cells from the buffy coats were collected and the residual Histopaque was washed away using repeated centrifugations in HBSS. After washes, cells were resuspended at 5 million cells per ml in RPMI, supplemented with 2% FBS. To remove adherent cells, the suspension was plated onto a 6 well flat-bottom plate (Corning Costar), 3 ml/well, and incubated for 2 hours at 37° C., 5% CO2. Non-adherent cells were harvested after this incubation, were counted and resuspended in RPMI supplemented with 10% human serum (Sigma).
All drugs were pre-plated before the cell suspension was added onto each well of a 96-well round-bottom plate. All experimental conditions were assayed in at least triplicate. Cells suspended in RPMI supplemented with 10% human serum were plated at 100,000 cells per well to a final volume of 200 μl. […] Control samples received no ConA stimulation. The plates were incubated at 37° C. and 5% CO2. One microCurie of tritiated thymidine was added to each well after 60 hours, and the plates were harvested 12 hours later.

T cells = assay: Macrophage media-conditioning study, T cell proliferation in conditioned media; type: cell-based, mouse; settings: for conditioning effect of the media: uptake inhibitor present during the conditioning phase
Description: Femur and tibia bones were harvested from the hind limbs of 6-8 week old C57/B6J mice (Jackson Laboratories, Bar Harbor, Me.). The distal ends of the bones were removed, exposing the marrow plugs. Using a 22 gauge needle (Becton-Dickinson, Lincoln Park, N.J.), the marrow cavities were flushed with RPMI medium supplemented 2% FBS. The cell suspension was then passed through a nylon mesh to remove stromal cells. Red blood cells were lysed using ACK (ammonium chloride potassium lysis buffer; 0.15 M NH4Cl, 10 mM KHCO3, 0.1 mM EDTA) buffer as described in Current Protocols in Immunology (Section 3.1.5).
Cells were resuspended at 10^7 cells/ml in RPMI medium, containing 10% FBS, 500 units/ml of murine M-CSF, and 3 ml/well of cell suspension were plated onto a 6 well flat-bottom plate. […] Cells were grown for 4 days. Spleens of 6-8 week old BALB/c/BYJ were harvested, and single cell suspension was made. Red blood cells were removed as described above. Adherent cells were removed by 1.5 hour incubation on a nylon wool column, and suspension cells were collected. The BALB/c cells were then plated over the C57/B6 cells (see supra), at 1.2×10^6 cells/well, in 0.65 ml (bringing brought the final volume of each well to 1.3 ml). The cells were grown for 2.5 days. When appropriate, fluoxetine or BCH were added at the beginning of this incubation. The medium from the mixed cell cultures was harvested, centrifuged at 1200 RPM to remove cells, and filtered using a 0.22 microns syringe filter (Corning). This filtered medium was used to support another round of cell proliferation.

human lymphocytes [2] = assay: Human mixed lymphocyte reaction (allogeneic stimulation); type: cell-based; settings: allogeneic stimulation, harvested 120 hours, FIGS. 7B, 8B, 9B
Description: Blood from two healthy, non-related, donors was taken as described above. Peripheral blood mononuclear cells were isolated as described previously elsewhere. The adherent cells were separated from the suspension cells as described previously for both donors. Suspension cells from both donors (donors A and B) were used as responders. The remaining adherent cells from each of the donors were used as stimulators against a different donor (suspension A against adherent B and adherent A against suspension B). The stimulator cells were irradiated at 35 Gy. Drugs were pre-plated onto 96 well, U-bottom plates in triplicate. 200,000 “stimulator” cells in RPMI supplemented with 10% human serum were then plated in each well. 200,000 “responder” cells in the same medium were then plated over stimulators to a final volume of 200 μl/well. Background controls received either no stimulator cells, or no responder cells. The plates were incubated at 37° C. and 5% CO2. 1 μCi of tritiated thymidine was added to each well after 4.5 days, and the plates were harvested 12 hours later.

[3] = tested on: allogeneic CTL response to P815 cells; assay: Murine allograft model, CTL killing of P815 target cells by splenocytes; type: in vivo, C57BL/6J mice; settings: for effect on allogeneic killing response: tail vein 300 μg/injection on days 5 and 7, sacrificed day 14, FIGS. 18A, 18B; for effect on allograft (CTL) response: tail vein bolus 200 μg/injection on days 6 and 8, sacrificed day 14, FIG. 13
Description: The in vivo validation screen used was an art-recognized murine allogeneic rejection model as described in Zhan et al., 2000. For this assay, a complete MHC miss-match system was employed wherein 5×10^6 P815 cells ([H-2^d] DBA/2 mastocytoma) were injected into the peritoneal cavity of C57BL/6J (H-2^b) mice on day 0 of the experiment. These mice typically generate a strong cytotoxic T lymphocyte (CTL) reaction in response to P815 cells. Following the initial P815 cell inoculation, the mice were allowed to develop a CTL response (this usually takes about 10-14 days). […] Mice were then sacrificed on day 14 of the experiment as indicated in the figures; and the allogeneic CTL response was assayed as described previously (Tretiakova et al., 2000, Nature Biotechnology 18:984-988). The primary spleen cells from the treated and untreated animals were used in the direct CTL readout. Freshly obtained primary spleen cells were incubated with the [^3H] labeled target cells (P815 cells) at 100:1, 50:1, 25:1, and 12.5:1 ratios for 3.5 hours at 37° C. and harvested using a PHD harvester. The percentage of specific killing was determined using the formula % kill=(S−E)/S, where S is the amount of the DNA retained by the target cells in the absence of the effector cells and E is the amount of retained DNA in the presence of the effector cells (expressed in counts per minute; cpm).
This is an art-recognized model of allograft […] rejection based on that described by […]. (2000). In this model, there is a complete MHC mismatch between the P815 cells (H-2^d) and the C57BL6 mouse (H-2^b), thus ensuring an aggressive immune response. The data disclosed in FIG. 13, depicts results of experiments that included 6 treatment groups, each group consisting of three mice. Each mouse received 5×10^6 P815 cells injected into the peritoneal cavity on day 0 of the study. The first group was an untreated control group, which was used to establish the baseline response of the mice against the allogeneic stimulus. These mice, without any further treatments, were sacrificed, as were the other treatment groups, on day 14 of the study and their splenocytes assayed for target-specific killing of the P815 cells.
The average kill observed for the untreated group was about 45% at an effector to target ratio of 100:1. […] The timing of the drug administration was selected to ensure that the T cells were fully activated prior to the drug treatment. The third group was treated with propanolol, a 5HT-1 antagonist. All of the 5HT receptor antagonist-treated groups were treated as described for the risperidone-treated group. The fourth group was treated chronically with CyclosporinA. The Cyclosporin A was administered ip at a dosage of 100 μg/injection starting two days prior to the onset of the study, i.e., at day-2, and the injections were continued on a daily basis for the duration of the study.
Finally, studies conducted in vivo using the CD8-dependent allograft rejection model, in which P815 cells (a rapidly growing cell line taken from a mastocytoma in a DBA mouse), were expanded and used to create a robust rejection response in a C57BL6 mouse. In this study the mice received 5×10^6 P815 cells injected into their peritoneal cavity on day 0 of the study. The first group was an untreated control group (naïve animals), used to acquire the baseline response of the mice against the allogeneic stimulus. The positive controls were treated with the allogeneic cells without any further treatments. These animals were used to assess the induced allogeneic response against the P815 cells.
All treatment groups were sacrificed on day 14 of the study and their splenocytes assayed for target-specific killing of the P815 cells (the averaged overall kill observed for the positive control group was about 45% at an effector to target ratio of 100:1). The serotonin-specific compounds were administered via tail vein injection (300 μg/injection) on days 5 and 7 of the study. […]

RPMI-8226 cells = assay: Hematoxylin-eosin / bis-benzamide staining of RPMI-8226 cytospins; type: cell-based, human; settings: 2 μM, 9 hour treatment, FIG. 28
Description: 2.0×10^5 RPMI-8226 cells were cultured, in 6-well culture plates, in the presence of the indicated drug concentrations, in a total of 5 mL RPMI-1640 supplemented with 10% FBS. Each well was harvested in its entirety and divided into two identical samples for cytospins.
1.0×10^5 RPMI-8226 cells from each treatment group were loaded into Cyto-funnels and centrifuged at 500 rpm for 4 minutes with medium acceleration. Slides were then fixed through graded methanol in PBS (100%, 5 minutes; 80%, 5 minutes; 50%, 5 minutes), washed for 5 minutes in PBS and stored in PBS at 4° C. until stained.
Cytospun slides were stained with Hematoxylin and Eosin, followed by the nuclear stain, bis-benzamide, rinsed and mounted according to standard staining protocols. Slides were visualized under both brightfield and fluorescent light to generate matched images of the same slide field (see, e.g., FIGS. 28 and 29).

Which “effect on mitogenic response” value (human lymphocytes [1]; ConA 1 μg/ml, human PBLs, FIG. 3) does the source give for `N[C@@H](Cc1ccc(Cl)cc1)C(=O)O` (racemic) [PCPA, para-chlorophenylalanine] here?
The value was “inhibits the mitogenic response in a dose-dependent manner”.

Which “conditioning effect of the media” value (T cells) does the source give for `NC1(C(=O)O)CC2CCC1C2` (stereo not shown) [2-amino 2-norbornane carboxylic acid] here?
Its value is “can be prevented”.

Which results are given for `N[C@@H](Cc1c[nH]c2ccc(O)cc12)C(=O)O` [5-hydroxy-tryptophan]?
effect on proliferation response (human lymphocytes [1]; 25 μM, in the absence of PCPA, FIG. 3): significantly enhanced the proliferation response; reversal of PCPA inhibition of the mitogenic response (human lymphocytes [1]; added to PCPA-inhibited cells, FIG. 3): this inhibition can be reversed

For `OC(CN1CCN(c2cccc(Cl)c2)CC1)C(c1ccccc1)c1ccccc1` (stereo not shown) [BRL 15572], which “effect on activation / proliferative response” value (human lymphocytes [1]) is on record?
Its value is “no effect upon the proliferative response”.

What about the “effect on activation / proliferative response” value (human lymphocytes [2]) of the same molecule?
Its value is “no effect upon the proliferative response”.

`CC(O)C(C)OC(=O)[C@@H]1C[C@@H]2c3cccc4c3c(cn4C(C)C)C[C@H]2N(C)C1` (stereo partly shown) [LY 53857] was tested. Which “effect on activation / proliferative response” value (human lymphocytes [1]) did it give?
The value was “inhibit the activation response at pharmacologically relevant concentrations”.

What about the “effect on activation / proliferative response” value (human lymphocytes [2]) of the same molecule?
Its value is “inhibit the activation response at pharmacologically relevant concentrations”.

How did the “effect on allogeneic killing response” value [3] turn out when `Cn1ccc2cc3c(cc21)CCN3C(=O)Nc1cccnc1` [SB 206553] was run?
The value was “striking”.

What about the “effect on allograft (CTL) response” value [3] of the same molecule?
The value was “inhibited the allograft response to varying degrees”.

And the “individual mouse responses within treated group” value ([3]; three treated mice, FIG. 14)?
The value was “Two of the treated mice had the allogeneic response completely suppressed; also recorded: Two of the three treated mice inhibited the allograft response to a degree equivalent to that observed in the Cyclosporin A-treated animals”.

What about the “effect on activation / proliferative response” value (human lymphocytes [1]) of the same molecule?
Its value is “inhibit the activation response at pharmacologically relevant concentrations”.

What about the “in vitro effect on activation response / helper T cell proliferation (summary statement)” value (human lymphocytes [1]) of the same molecule?
Its value is “immediate cessation of proliferation”.

What about the “effect on activation / proliferative response” value (human lymphocytes [2]) of the same molecule?
Its value is “inhibit the activation response at pharmacologically relevant concentrations”.

With `COc1ccccc1N1CCN(CCN(C(=O)C2CCCCC2)c2ccccn2)CC1` [WAY 100635] as the molecule, how does the “in vitro effect on activation response / helper T cell proliferation (summary statement)” value (human lymphocytes [1]) read?
The value was “significantly inhibits the activation response”.

How did the “chromatin / nuclear morphology” value (RPMI-8226 cells) turn out when `CC[C@@]1(O)C(=O)OCc2c1cc1n(c2=O)Cc2cc3ccccc3nc2-1` [camptothecin] was run?
The value was “Extensive chromatin condensation and nuclear fragmentation”.

With `CNCCC(Oc1ccc(C(F)(F)F)cc1)c1ccccc1` (stereo not shown) [fluoxetine] as the molecule, how does the “conditioning effect of the media” value (T cells) read?
Its value is “can be prevented”.

With `CC[C@@H](CO)NC(=O)[C@@H]1C=C2c3cccc4c3c(cn4C)C[C@H]2N(C)C1` [methysergide] as the molecule, how does the “effect on allogeneic killing response” value [3] read?
Its value is “complete inhibition of the induced killing response; also recorded: abrogated the allogeneic killing response; also recorded: inhibition profile was striking”.

And the “effect on allograft (CTL) response” value [3]?
The value was “inhibited the allograft response to varying degrees”.

How did the “drug concentration giving significant inhibition” value (human lymphocytes [1]; ConA 0.1 and 1 μg/ml, FIGS. 5A and 5B) turn out when `NNCCc1ccccc1` [phenelzine] was run?
Its value is 10 to 100 µM.

What about the “drug concentration giving full inhibition” value (human lymphocytes [1]; higher ConA stimulation (10 μg/ml)) of the same molecule?
The value was 100 to 400 µM.

And the “effect on proliferative response” value (human lymphocytes [1]; highest ConA dose, 10 μg/ml, harvest 72 hours, FIG. 5C)?
Its value is “no inhibition was observed”.

And the “effect on stimulation of ConA-stimulated human PBLs” value (human lymphocytes [1])?
The value was “completely shut down the stimulation”.

Which results are given for `NCCc1c[nH]c2ccc(O)cc12` [serotonin, 5-hydroxytryptamine]?
relief of phenelzine-induced inhibition (human lymphocytes [1]; ConA 1 μg/ml, added to phenelzine-inhibited cells, 100 μM each, FIG. 6): caused the assay to rebound to baseline levels; effect on proliferative response (human lymphocytes [1]; ConA 1 μg/ml, reagent 100 μM, FIG. 6): did not; effect on the assay across ConA concentrations (human lymphocytes [1]; ConA 0.1, 1 and 10 μg/ml, harvest 72 hours, FIG. 5): no effect on the assay until the highest dose of ConA; effect on stimulation of ConA-stimulated human PBLs (human lymphocytes [1]): enhanced the maximal stimulation of the cells; restoration of T cell proliferation in conditioned media (T cells; added to conditioned media, FIG. 1): only marginally restored the assay

— patent US6979447B2, “Immunomodulation and effect on cell processes relating to serotonin family receptors” (Philadelphia Health and Education Corporation, priority 2001, dated 2005)
